Test results: patent US20150290231A1, “COMPOSITION FOR INHIBITING CELLULAR SENESCENCE COMPRISING QUERCETIN-3-O-beta-D-GLUCURONIDE” (INDUSTRY-ACADEMIC COOPERATION FOUNDATION, YEUNGNAM …, priority 2012, published 2015)

Assays:
p53 [1] = assay: Western blot of p53 in adriamycin-treated HDFs; format: cell-based, human; settings: Q3GA 1 h prior to adriamycin 500 nM 4 h, concentration-dependent
Procedure: (§1) FIG. 3 represents the effect of Q3GA on the expression levels of p53, pS6K, and p21 proteins in HDFs and HUVECs treated with adriamycin. Cells were treated with the indicated concentrations of Q3GA for 1 h prior to adriamycin treatment and incubated for 4 h. Proteins from cells were extracted and separated. The expression levels of each protein were analyzed by Western blotting. Representative data of 3 independent experiments are shown. NT, not treated with adrimycin; ADR, adriamcyin; C, control; D, dimethyl sulfoxide; N, 5 mM N-acetylcysteine; R, 500 nM rapamycin.
(§2) Each cells were divided into a 60 mm culture dish to the cell number of 1×10^5, and then cultured at 37° C. in a 5% CO2 incubator. […] The amount of the protein in the solution was quantified by bicinchoninic acid (BCA) method (Pierce Biotechnology Inc., Rockford Ill., USA) by using bovine serum albumin as a standard protein.
(§3) Protein (30 μg) was separated by being electrophoresed through a 10% SDS-polyacrylamide gel. […] The membrane was washed five times with TTBS for every 5 min, and then the amounts of p53, p21 and pS6 were measured by using an enhanced chemiluminescence solution. The amount of the specific protein reacted with each antibody was measured by using a LAS-3000 imaging system (Fujifilm Corp., Stanford, Conn., USA). […]

[2] = system: human umbilical vein endothelial cells (HUVECs); assay: Intracellular ROS (DCF fluorescence, flow cytometry) in adriamycin-treated HUVECs; format: cell-based; settings: Q3GA 10 μg/ml, 3 days
Procedure: (§4) FIG. 5 represents the effect of Q3GA on intracellular ROS levels increased by adriamycin treatment in HUVECs. Young cells (1.5×10^5) treated with or without adrimcyin were seeded in 60 mm culture dishes and incubated for 24 h. Following treatment of cells with 10 µg/mL of Q3GA, 0.5% DMSO, 5 mM NAC, or 500 nM rapamcyin for 3 days, cells were loaded with 250 µM H2DCFDA for 20 min. The DCF fluorescence intensity of each population of 10,000 cells was measured by flow cytometry. Representative data from three independent experiments are shown. Median fluorescence intensities were obtained and compared. Values are means±SDs from 3 independent experiments. NT, not treated with adrimycin; ADR, adriamcyin; C, control; D, dimethyl sulfoxide; N, 5 mM N-acetylcysteine; R, 500 nM rapamycin. *p<0.05 vs DMSO.
(§5) Each cells were divided into a 100 mm culture dish to the cell number of 1.5×10^5, and then cultured at 37° C. in a 5% CO2 incubator for 3 days. The cells were washed two times with DMEM medium containing antibiotics, and then adriamycin 500 nM was treated thereto for 4 hours. The cells were separated by treating trypsin-EDTA solution (2.5%), and then divided again into a 60 mm culture dish to the cell number of 1×10^5 followed by culturing at 37° C. in a 5% CO2 incubator. […] ROS was measured by using BD FACS Canto II flow cytometry (BD Biosciences, San Jose, Calif.).

p21 [3] = assay: Western blot of p21 in adriamycin-treated HDFs; format: cell-based, human; settings: Q3GA 1 h prior to adriamycin 500 nM 4 h, concentration-dependent
Procedure: as §1, §2, §3

[4] = system: human dermal fibroblasts (HDFs); assay: Replicative senescence, SA-β-gal activity staining, old HDFs; format: cell-based; settings: old HDFs (PD>75); increasing Q3GA concentration; 3 days; concentration-dependent
Procedure: (§6) FIG. 6 represents the effect of Q3GA on replicative senescence of HDFs. Old cells (3×10^4/well) were seeded in 6 well plates and incubated with or without 10 µg/mL of Q3GA for 3 days. Cellular senescence was assessed by SA-β-gal activity staining. Representative pictures of 3 independent experiments are shown. Percentages of SA-β-gal positive cells were measured. Values are means±SDs from 3 independent experiments. O, old cells; D, dimethyl sulfoxide; N, 5 mM N-acetylcysteine; R, 500 nM rapamycin. *p<0.05 or **p<0.05 vs DMSO.
(§7) HDFs in DMEM with 10% FBS and 1% antibiotics (penicillin 10,000 unit/mL and streptomycin […]) were seeded at 1×10^5 cells per 100 mm culture plate and incubated at 37° C. in 5% CO2 humidified air. When subcultures reached 80-90% confluence, serial passaging was performed by trypsinization. HUVECs in EGM-2 media were cultured under the same conditions. The number of population doublings (PDs) was monitored for further experiments. PD was calculated using the geometric equation: PD=log 2F/log 2I (F, final cell number; I, initial cell number). HDFs in PD<35 and HUVECs in PD<30 were used for adriamycin-induced cellular senescence. HDFs in PD>75 and HUVECs in PD>50 were used as old cells under replicative senescence.
The effect of single component on cellular senescence was examined by SA-β-gal activity staining. […]

[5] = system: human umbilical vein endothelial cells (HUVECs); assay: Replicative senescence, SA-β-gal activity staining, old HUVECs; format: cell-based; settings: old HUVECs (PD>50); increasing Q3GA concentration; 3 days; concentration-dependent
Procedure: as §6, with “7” for “6”, “HUVECs. […]” for “HDFs. Old cells (3×10^4/well) were seeded in 6 well plates and incubated with or without 10 µg/mL of Q3GA for 3 days.”
as §7
The effect of single component on cellular senescence was examined by SA-β-gal activity staining. Each single component was treated in a 24-well culture plate or a 12-well culture plate for 3 days, and then the cells were washed with phosphate buffer. […]

p21 [6] = assay: Western blot of p21 in adriamycin-treated HUVECs; format: cell-based, human; settings: Q3GA 1 h prior to adriamycin 500 nM 4 h, concentration-dependent
Procedure: as §1, §2, §3

p53 [7] = assay: Western blot of p53 in adriamycin-treated HUVECs; format: cell-based, human; settings: Q3GA 1 h prior to adriamycin 500 nM 4 h, concentration-dependent
Procedure: as §1, §2, §3

[8] = system: human dermal fibroblasts (HDFs); assay: Adriamycin-induced cellular senescence, SA-β-gal activity staining, HDFs; format: cell-based; settings: 3 days
Procedure: (§8) FIG. 1 represents the effect of quercetin-3-O-β-D-glucuronide (Q3GA) on adriamycin-induced cellular senescence in human dermal fibroblasts (HDFs). Cells treated with 500 nM adriamycin for 4 h were seeded at 500 cells/well in 96 well plates. After treatment with increasing concentrations of Q3GA, cells were incubated for 3 days and cellular senescence assessed by SA-β-gal activity staining. SA-β-gal activity staining (Left) and percentages of SA-β-gal positive cells in HDFs (Right). Representative SA-β-gal staining pictures of 3 independent experiments are shown. Values are means±SDs from 3 independent experiments measured in triplicates. C, control; D, dimethyl sulfoxide; N, 5 mM N-acetylcysteine; R, 500 nM rapamycin. *p<0.05 or **p<0.01 vs DMSO.
as §7, with “HDFs in PD>75 and HUVECs in PD>50 were used as old cells under replicative senescence.” left out

[9] = system: human umbilical vein endothelial cells (HUVECs); assay: Adriamycin-induced cellular senescence, SA-β-gal activity staining, HUVECs; format: cell-based; settings: 3 days
Procedure: as §8, with “FIG. 2” for “FIG. 1”, “human umbilical vein endothelial cells (HUVECs).” for “human dermal fibroblasts (HDFs).”, “at 1,000” for “at 500”, “in HUVECs” for “in HDFs”
as §7, with “HDFs in PD<35 and HUVECs in PD<30 were used for adriamycin-induced cellular senescence. HDFs in PD>75 and HUVECs in PD>50 were used as old cells under replicative senescence.” left out

[10] = system: human dermal fibroblasts (HDFs); assay: Intracellular ROS (DCF fluorescence, flow cytometry) in adriamycin-treated HDFs; format: cell-based; settings: Q3GA 10 μg/ml, 3 days
Procedure: as §4, with “FIG. 4” for “FIG. 5”, “in HDFs.” for “in HUVECs.”
as §5

[11] = Q3GA 10 μg/ml, adriamycin 500 nM 4 h
[12] = increasing concentrations of Q3GA

## O=C(O)[C@H]1O[C@@H](Oc2c(-c3ccc(O)c(O)c3)oc3cc(O)cc(O)c3c2=O)[C@H](O)[C@@H](O)[C@@H]1O [Q3GA, quercetin-3-O-β-D-glucuronide]
p53 [1]
  level of p53 protein increased by adriamycin: reduced
[2]
  intracellular ROS levels augmented by adriamycin (DCF fluorescence intensity): decreased intracellular ROS levels
p21 [3]
  level of p21 protein increased by adriamycin: reduced
[4]
  SA-β-gal activity under replicative senescence: decreased SA-β-gal activity
[5]
  SA-β-gal activity under replicative senescence: decreased SA-β-gal activity
p21 [6]
  level of p21 protein increased by adriamycin: reduced
p53 [7]
  level of p53 protein increased by adriamycin: reduced
[8]; [11]
  SA-β-gal activity staining increased by adriamycin: reduced by Q3GA treatment
[8]; [12]
  SA-β-gal activity increased by adriamycin, concentration dependence: reduced as Q3GA concentration was increased
[9]; [11]
  SA-β-gal activity staining increased by adriamycin: reduced by Q3GA treatment
[9]; [12]
  SA-β-gal activity increased by adriamycin, concentration dependence: reduced as Q3GA concentration was increased
[10]
  intracellular ROS levels augmented by adriamycin (DCF fluorescence intensity): decreased intracellular ROS levels
